Residue numbers refer to the chain shown, from its start. Where two headings read alike, the source gives them in different places.

In one assay the target is T1, human M1 (Homo sapiens, UniProt P11229).
T1 construct: expressed in transfected cells; host or cells: CHO cells
T1 sequence (P11229 1-460): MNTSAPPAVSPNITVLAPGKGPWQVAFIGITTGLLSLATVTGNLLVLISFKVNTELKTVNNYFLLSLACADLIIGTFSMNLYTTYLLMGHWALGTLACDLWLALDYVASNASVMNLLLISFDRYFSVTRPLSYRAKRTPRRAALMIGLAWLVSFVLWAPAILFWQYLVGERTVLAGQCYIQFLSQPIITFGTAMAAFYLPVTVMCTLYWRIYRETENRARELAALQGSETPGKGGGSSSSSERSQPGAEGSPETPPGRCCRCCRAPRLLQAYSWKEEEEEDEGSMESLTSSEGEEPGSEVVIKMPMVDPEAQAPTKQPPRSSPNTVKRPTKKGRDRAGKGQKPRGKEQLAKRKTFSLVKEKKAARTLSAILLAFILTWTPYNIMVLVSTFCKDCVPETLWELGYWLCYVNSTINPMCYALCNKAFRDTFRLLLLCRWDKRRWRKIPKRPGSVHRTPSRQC
In words: M1 PAM assay (FLIPR intracellular calcium, CHO human M1). It is filed as cell-based. As to the method:
The assay study the effect of several concentrations of test compounds on basal or acetylcholine-stimulated Ca^2+ levels using FLIPR. CHO human M1 are plated the day before the experiments at 2×10^5 cells/ml in PDL BioCoat 96 well black/clear plate (Becton 35 4640). The cells are grown at 37° C. and 5% CO2 in the following medium: F12 Nut Mix (Gibco 21765), 10% FCS heat inactivated (GIBCO 16000-044), 1% Pen Strep (Gibco, 15140) and 200 μg/ml Geneticin (Gibco 11811). On the day of the experiment, the medium was removed and replaced by 100 μl of dye loading buffer containing Hanks Balanced Salt solution (HBSS, 14065-049, Gibco) with 20 mM HEPES (Gibco 15630-056), 2 mM Probenicid (Sigma P8761), […] (Molecular Probes F-14202), 10% Pluronic acid Molecular Probes P-3000) pH=7.4 and incubated at 37° C. After 60 minutes extracellular dye was removed and the cells were washed five times with FLIPR buffer containing HBSS (Gibco 14065-049) with 20 mM HEPES (Gibco, 15630-056), 2 mM Probenicid (Sigma P8761) pre-warmed at 37° C. using and Ebml cell washer leaving 100 μl of FLIPR buffer in each well. The cell plate and the diluted compounds (1% DMSO final concentration) are placed on the platform of the FLIPR and the door closed. A signal test to check background fluorescence and basal fluorescence signal is performed. Laser intensity is adjusted if necessary. Two minutes preincubation with the diluted test compounds is provide to determine any agonist activity on the M1 receptor by comparison to 30 nM Acetylcholine control. In order to determine any modulator activity the diluted compounds were added to cells and after two minutes preincubation, the EC20 of acetylcholine is added followed by another two minutes preincubation before the measurement of intracellular Ca^2+ with a FLIPR (Molecular Devices).
A general note: Calcium assays in cells follow changes in intracellular calcium, usually with a dye or a luminescent sensor.

Another assay deals with T2, M1 receptor (Rattus norvegicus, UniProt P08482).
T2 construct: expressed in transfected cells
T2 sequence (P08482 1-460): T1 sequence (P11229 1-460) with A5V, T254S, P309S, R320K, A337G, I413V
Nature of the assay: M1 PAM assay (FLIPR intracellular calcium), rat. It is filed as cell-based.

Setting [1] is: human M1 in CHO cells, modulator activity with EC20 of acetylcholine, FLIPR Ca2+, read-out: EC50 h PAM.
Where [2] appears, read: rat, modulator activity with EC20 of acetylcholine, FLIPR Ca2+, read-out: EC50 rat PAM.

For orientation: EC50 means the concentration giving half of the maximal effect. Regarding `CC[C@@H](CO)NC(=O)c1cn(Cc2ccc(-c3cnn(C)c3)cc2F)c2cccnc12` [Example 12, 1-[2-Fluoro-4-(1-methyl-1H-pyrazol-4-yl)-benzyl]-1H-pyrrolo[3,2-b]pyridine-3-carboxylic acid ((S)-1-hydroxymethyl-propyl)-amide], the concentration for a half-maximal effect (EC50) on human M1 was 129 nM; at M1 receptor, 244 nM.

As for `CCC(CO)NC(=O)c1cn(Cc2ccc(-c3cnn(C)c3)cc2F)c2cccnc12` (centres unmarked) [Example 13, 1-[2-Fluoro-4-(1-methyl-1H-pyrazol-4-yl)-benzyl]-1H-pyrrolo[3,2-b]pyridine-3-carboxylic acid (1-hydroxymethyl-propyl)-amide], the figures for the EC50 at human M1 and at M1 receptor were 195 nM and 632 nM, respectively.

Regarding `CCC(O)CNC(=O)c1cn(Cc2ccc(-c3cnn(C)c3)cc2F)c2cccnc12` (centres unmarked) [Example 14, 1-[2-Fluoro-4-(1-methyl-1H-pyrazol-4-yl)-benzyl]-1H-pyrrolo[3,2-b]pyridine-3-carboxylic acid (2-hydroxy-butyl)-amide], the concentration for a half-maximal effect (EC50) on human M1 (setting [1]) turned out to be 100 nM; at M1 receptor (setting [2]) it was 155 nM.

In the case of `Cn1cc(-c2ccc(Cn3cc(C(=O)N[C@H]4CCC[C@@H]4O)c4ncccc43)c(F)c2)cn1` [Example 17, 1-[2-Fluoro-4-(1-methyl-1H-pyrazol-4-yl)-benzyl]-1H-pyrrolo[3,2-b]pyridine-3-carboxylic acid ((1S,2S)-2-hydroxy-cyclopentyl)-amide], the values for the EC50 on human M1 and at M1 receptor were 64.9 nM and 272 nM, respectively.

Turning to `Cn1cc(-c2ccc(Cn3cc(C(=O)N[C@H]4CCC[C@H]4O)c4ncccc43)c(F)c2)cn1` [Example 18, 1-[2-Fluoro-4-(1-methyl-1H-pyrazol-4-yl)-benzyl]-1H-pyrrolo[3,2-b]pyridine-3-carboxylic acid ((1S,2R)-2-hydroxy-cyclopentyl)-amide], the figures for the half-maximal effective concentration (EC50) at human M1 and on M1 receptor were 96 nM and 195 nM, respectively.

For `CC(C)[C@@H](CO)NC(=O)c1cn(Cc2ccc(-c3cnn(C)c3)cc2F)c2cccnc12` [Example 19, 1-[2-Fluoro-4-(1-methyl-1H-pyrazol-4-yl)-benzyl]-1H-pyrrolo[3,2-b]pyridine-3-carboxylic acid ((S)-1-hydroxymethyl-2-methyl-propyl)-amide], the values for the half-maximal effective concentration (EC50) at human M1 and at M1 receptor were 178 nM and 285 nM, respectively.

Turning to `CCCC(CO)NC(=O)c1cn(Cc2ccc(-c3cnn(C)c3)cc2F)c2cccnc12` (centres unmarked) [Example 20, 1-[2-Fluoro-4-(1-methyl-1H-pyrazol-4-yl)-benzyl]-1H-pyrrolo[3,2-b]pyridine-3-carboxylic acid (1-hydroxymethyl-butyl)-amide], the figures for the EC50 on human M1 and on M1 receptor were 199 nM and 499 nM, respectively.

As for `CC(C)C(CO)NC(=O)c1cn(Cc2ccc(-c3cnn(C)c3)cc2F)c2cccnc12` (centres unmarked) [Example 22, 1-[2-Fluoro-4-(1-methyl-1H-pyrazol-4-yl)-benzyl]-1H-pyrrolo[3,2-b]pyridine-3-carboxylic acid (1-hydroxymethyl-2-methyl-propyl)-amide], the EC50 was 183 nM on human M1 and 381 nM at M1 receptor.

As for `Cn1cc(-c2ccc(Cn3cc(C(=O)NCC4(O)CCCC4)c4ncccc43)c(F)c2)cn1` [Example 24, 1-[2-Fluoro-4-(1-methyl-1H-pyrazol-4-yl)-benzyl]-1H-pyrrolo[3,2-b]pyridine-3-carboxylic acid (1-hydroxy-cyclopentylmethyl)-amide], the EC50 on human M1 (setting [1]) amounted to 193 nM; at M1 receptor (setting [2]) it was 261 nM.

`CC[C@H](C)[C@@H](CO)NC(=O)c1cn(Cc2ccc(-c3cnn(C)c3)cc2F)c2cccnc12` [Example 26, 1-[2-Fluoro-4-(1-methyl-1H-pyrazol-4-yl)-benzyl]-1H-pyrrolo[3,2-b]pyridine-3-carboxylic acid ((1S,2S)-1-hydroxymethyl-2-methyl-butyl)-amide]: the results for the EC50 on human M1 (setting [1]) and on M1 receptor (setting [2]) were 143 nM and 302 nM, respectively.

Regarding `Cn1cc(-c2ccc(Cn3cc(C(=O)N[C@H](CO)C(C)(C)C)c4ncccc43)c(F)c2)cn1` [Example 27, 1-[2-Fluoro-4-(1-methyl-1H-pyrazol-4-yl)-benzyl]-1H-pyrrolo[3,2-b]pyridine-3-carboxylic acid ((S)-1-hydroxymethyl-2,2-dimethyl-propyl)-amide], the results for the EC50 at human M1 (setting [1]) and at M1 receptor (setting [2]) were 126 nM and 355 nM, respectively.

Take `Cn1cc(-c2ccc(Cn3cc(C(=O)NC4CCCCC4)c4ncccc43)c(F)c2)cn1` [Example 28, N-cyclohexyl-1-(2-fluoro-4-(1-methyl-1H-pyrazol-4-yl)benzyl)-1H-pyrrolo[3,2-b]pyridine-3-carboxamide]: the results for the EC50 on human M1 and at M1 receptor were 283 nM and 521 nM, respectively.

With `Cn1cc(-c2ccc(Cn3cc(C(=O)Nc4ncccc4CO)c4ncccc43)c(F)c2)cn1` [Example 30, 1-[2-Fluoro-4-(1-methyl-1H-pyrazol-4-yl)-benzyl]-1H-pyrrolo[3,2-b]pyridine-3-carboxylic acid (3-hydroxymethyl-pyridin-2-yl)-amide], the EC50 on human M1 was 82.4 nM; on M1 receptor, 210 nM.

With `Cn1cc(-c2ccc(Cn3cc(C(=O)N[C@H](CO)c4ccccc4)c4ncccc43)c(F)c2)cn1` [Example 32, 1-[2-Fluoro-4-(1-methyl-1H-pyrazol-4-yl)-benzyl]-1H-pyrrolo[3,2-b]pyridine-3-carboxylic acid ((S)-2-hydroxy-1-phenyl-ethyl)-amide], the EC50 on human M1 was 88.7 nM; at M1 receptor, 277 nM.

As to `Cn1cc(-c2ccc(Cn3cc(C(=O)NC[C@@H](O)c4ccccc4)c4ncccc43)c(F)c2)cn1` [Example 34, 1-[2-Fluoro-4-(1-methyl-1H-pyrazol-4-yl)-benzyl]-1H-pyrrolo[3,2-b]pyridine-3-carboxylic acid ((S)-2-hydroxy-2-phenyl-ethyl)-amide], the values for the EC50 at human M1 (setting [1]) and at M1 receptor (setting [2]) were 120 nM and 494 nM, respectively.

As for `Cn1cc(-c2ccc(Cn3cc(C(=O)Nc4ncccc4O)c4ncccc43)c(F)c2)cn1` [Example 36, 1-[2-Fluoro-4-(1-methyl-1H-pyrazol-4-yl)-benzyl]-1H-pyrrolo[3,2-b]pyridine-3-carboxylic acid (3-hydroxy-pyridin-2-yl)-amide], the figures for the 50% effective concentration (EC50) on human M1 (setting [1]) and on M1 receptor (setting [2]) were 109 nM and 314 nM, respectively.

Turning to `Cn1cc(-c2ccc(Cn3cc(C(=O)N[C@H]4COCC[C@@H]4O)c4ncccc43)c(F)c2)cn1` [Example 41, 1-[[2-fluoro-4-(1-methylpyrazol-4-yl)phenyl]methyl]-N-[(3S,4S)-4-hydroxyoxan-3-yl]pyrrolo[3,2-b]pyridine-3-carboxamide], the EC50 on human M1 (setting [1]) came to 30.4 nM; on M1 receptor (setting [2]), 51 nM.

On to `Cc1ccc(Cn2cc(C(=O)N[C@H]3CCCC[C@@H]3O)c3ncccc32)cc1` [Example 43, N-((1S,2S)-2-hydroxycyclohexyl)-1-(4-methylbenzyl)-1H-pyrrolo[3,2-b]pyridine-3-carboxamide], for which the EC50 at human M1 is 207 nM; on M1 receptor, 611 nM.

Turning to `COc1ccc(Cn2cc(C(=O)N[C@H]3CCCC[C@@H]3O)c3ncccc32)cc1F` [Example 44, 1-(3-fluoro-4-methoxybenzyl)-N-((1S,2S)-2-hydroxycyclohexyl)-1H-pyrrolo[3,2-b]pyridine-3-carboxamide], the concentration giving a half-maximal response (EC50) on human M1 worked out at 127 nM; at M1 receptor it was 598 nM.
